These results are taken from the NIST ThermoML archive (doi:10.1021/je049953t).

For data set [1] the following is noted: 298.15 K; 101.33 kPa; Liquid.
Data set [2] can be described thus: excess molar enthalpy (molar enthalpy of mixing); xn = mol fraction of the nth substance listed. The conditions noted are these: 101.33 kPa, Liquid, Flow calorimetry.

± gives the expanded uncertainty stated by the source.

Take `CN(C)C=O` [dimethylformamide]: in data set [1], the mass density (as a rule, the mass of a sample divided by its volume) worked out at 943.81 ± 0.15 kg/m3.

For the molecule `CCCC(C)C` [2-methylpentane] + CN(C)C=O, the excess molar enthalpy is 0.0551 ± 0.00148 kcal/mol in data set [2] (298.15 K, x1 = 0.03); 0.105 ± 0.00239 kcal/mol in data set [2] (298.15 K, x1 = 0.0611); 0.105 ± 0.00239 kcal/mol in data set [2] (298.15 K, x1 = 0.0613); 0.154 ± 0.00335 kcal/mol in data set [2] (298.15 K, x1 = 0.094); 0.112 ± 0.00239 kcal/mol in data set [2] (298.15 K, x1 = 0.9462); 0.0551 ± 0.00148 kcal/mol in data set [2] (313.15 K, x1 = 0.03). The excess molar enthalpy in data set [2] (313.15 K, x1 = 0.0611) stood at 0.107 ± 0.00239 kcal/mol; in data set [2] (313.15 K, x1 = 0.0613), 0.108 ± 0.00239 kcal/mol; in data set [2] (313.15 K, x1 = 0.094), 0.157 ± 0.00359 kcal/mol; in data set [2] (313.15 K, x1 = 0.1281), 0.202 ± 0.0043 kcal/mol; in data set [2] (313.15 K, x1 = 0.9178), 0.174 ± 0.00382 kcal/mol; in data set [2] (313.15 K, x1 = 0.9462), 0.113 ± 0.00263 kcal/mol. Moreover, the excess molar enthalpy in data set [2] (313.15 K, x1 = 0.9469) was determined as 0.11 ± 0.00263 kcal/mol.

Regarding `CCCC(C)C` [2-methylpentane], the mass density in data set [1] is listed as 648.45 ± 0.44 kg/m3.
